From patent publication US20240287021A1, “QUATERNARY AMMONIUM SALT COMPOUND, PREPARATION METHOD THEREFOR AND USE THEREOF” (YICHANG HUMANWELL PHARMACEUTICAL CO., LTD., priority 2021, published 2024)
Counter-ions that a name gives are not always drawn.

How the values were obtained:
sciatic nerve = experiment: Local anesthetic effect of nerve block (sciatic nerve block model, hot plate test); type: in vivo; settings: rat, single dose 5 mL/Kg through right sciatic nerve, example compounds 6 mg/mL (8.6-10.1 mmol/L), hot plate 50°C; for Duration: levobupivacaine hydrochloride 2 mg/mL, MPE at least 50%
Method: Three groups of fully acclimatized rats, one in each group, were given to the example compounds and levobupivacaine hydrochloride positive control, respectively.
Solution preparation: 2 mg/mL levobupivacaine hydrochloride injection: 2.670 mL of 7.5 mg/mL levobupivacaine hydrochloride injection (batch number: 92S0702) was pipetted by a pipette and added into a 10 mL volumetric flask, 0.9% NaCl solution was added until the concave liquid level was flush with the scale line, and the volumetric flask was turned upside down to mix the solution well to prepare 2 mg/ml levobupivacaine hydrochloride injection. 6 mg/mL (the molar concentration calculated from the molecular weight of the example compound ranged from 8.6 to 10.1 mmol/L) example compound solution: 19.80 mg of example compound was accurately weighed and added with 3.3 mL of 0.9% NaCl solution to prepare 6 mg/mL example compound solution.
Each rat was administered or control injected at 5 mL/Kg, in a single dose through right sciatic nerve, and thereafter, the rat was placed on a hot plate of a preheated 50±0.1° C. smart hot plate apparatus. The time required for the occurrence of the behavioral phenomena of avoiding thermal stimuli, such as obvious foot lifting and foot licking on the administered side of the rat was recorded, as the hot incubation period. The allowable maximum value of the hot incubation period was controlled at 60 s. If the rat still has no foot licking after 60 s, the hind foot of the rat was lifted manually to avoid tissue injury or hyperalgesia, and 60 s was taken as the hot incubation period of the rat. After each measurement, the hot plate was wiped in time to remove possible urine and feces, and was dried for subsequent testing.
The results of the hot incubation period were expressed with maximum proportionality effect (MPE) and calculated using the following equation:
[formula] • wherein B represents the basic hot incubation period of rats, P represents the allowable maximum hot incubation period, and C represents the hot incubation period at the detection time point.
It was specified that the tested time below 50% of the maximum proportionality effect was determined to be invalid, and the test was stopped if two consecutive tests were both below 50% of the maximum proportionality effect.

[1] = test system: rat subcutaneous infiltration models; experiment: Subcutaneous infiltration local anesthetic effect (Von Frey stinging stimulus on back skin); type: in vivo; settings: SD rats
Method: SD rats (half male and half female) with a body weight of 190-210 grams were shaved and sterilized on the back, then a circle with a diameter of about 1.5 cm was drawn on one side of the bare back, and 0.5 mL of a drug-containing solution was subcutaneously injected into the skin in the center: normal saline was used as the solvent, 2 mg/mL levobupivacaine hydrochloride, 9 compounds of the present application were selected, at a concentration of 6 mg/mL (the equivalent molar concentration ranged from 8.6 to 10.1 mmol/L according to the corresponding molecular weights of the example compounds), with 10 rats in each group. Von Frey fiber filaments with 100 g strength were bound to a needle for topical skin stimulation. 1 min after drug injection, response of rats to stinging stimulus was tested. The test sites were six different points of the circle of the administration site, and whether behaviors such as skin contraction and avoidance occurred after stimulus was observed and recorded. Three points in the center of the circle and three points on the periphery of the circle were stimulated separately, and the number of occurrences of skin contraction and avoidance behavior was recorded as N/6. In terms of judgment, if there were 4 or more occurrences of avoidance and skin contraction behaviors, it was considered that the drug was ineffective; if there was a reaction on the periphery (≤3) and no reaction (≥1) in the center, it was considered that the drug was still effective; and if there was a reaction only at the points in the center, it was considered that the drug was ineffective. Each compound was tested with 10 rats.
Since the local anesthesia time longer than 72 hours may cause irreversible nerve injury, we subsequently halved (3 mg/mL) the dose of the compounds with the duration of action greater than 72 hours and then conducted an activity test to determine whether the local anesthesia effect could be restored in the skin infiltration models.

[2] = 0.5 mL subcutaneous on back, compounds 6 mg/mL (8.6-10.1 mmol/L)
[3] = 0.5 mL subcutaneous on back, compounds 6 mg/mL (8.6-10.1 mmol/L), levobupivacaine hydrochloride 2 mg/mL
[4] = subcutaneous on back, compounds 3 mg/mL (4.4-5.1 mmol/L)

Row | Compound | Duration (sciatic nerve) | Onset time (sciatic nerve) | Onset time [1, 2] | Duration [1, 3] | Duration [1, 4] | Onset time [1, 4]
1 | CCCC[N+]1(CCCCCN2CCCCC2C(=O)Nc2c(C)cccc2C)CCCCC1C(=O)Nc1c(C)cccc1C (stereo not drawn) [Compound 1] | 24 h | 1 min | 1 min | 55 h | – | –
2 | CCCC[N+]1(CCCCCN2CCCCC2C(=O)Nc2ccccc2)CCCCC1C(=O)Nc1c(C)cccc1C (stereo not drawn) [Compound 2] | 15 h | 1 min | – | – | – | –
3 | CCCC[N+]1(CCCCCN2CCCCC2C(=O)Nc2ccc(F)cc2)CCCCC1C(=O)Nc1c(C)cccc1C (stereo not drawn) [Compound 3] | 18 h | 1 min | – | – | – | –
4 | CCCC[N+]1(CCCCCN2CCCCC2C(=O)Nc2ccc(C)cc2)CCCCC1C(=O)Nc1c(C)cccc1C (stereo not drawn) [Compound 4] | 48 h | 1 min | 1 min | 72 to 96 h | 56 h | 1 min
5 | CCCC[N+]1(CCCCCN2CCCCC2C(=O)NC2CCCCC2)CCCCC1C(=O)Nc1c(C)cccc1C (stereo not drawn) [Compound 6] | 12 h | 1 min | – | – | – | –
6 | CCCC[N+]1(CCCCN2CCCCC2C(=O)Nc2ccc(F)cc2)CCCCC1C(=O)Nc1c(C)cccc1C (stereo not drawn) [Compound 7] | 30 h | 1 min | 2 min | 52 h | – | –
7 | CCCC[N+]1(CCCCN2CCCCC2C(=O)Nc2ccccc2)CCCCC1C(=O)Nc1c(C)cccc1C (stereo not drawn) [Compound 8] | 48 h | 1 min | 1 min | 72 to 96 h | 52 h | 1 min
8 | CCCC[N+]1(CCCCN2CCCCC2C(=O)NC2CCCCC2)CCCCC1C(=O)Nc1c(C)cccc1C (stereo not drawn) [Compound 9] | 24 h | 1 min | – | – | – | –
9 | CCC[N+]1(CCCCCN2CCCCC2C(=O)NC2CCCCC2)CCCCC1C(=O)Nc1c(C)cccc1C (stereo not drawn) [Compound 11] | 11 h | 1 min | – | – | – | –
10 | CCC[N+]1(CCCCCN2CCCCC2C(=O)Nc2ccc(C)cc2)CCCCC1C(=O)Nc1c(C)cccc1C (stereo not drawn) [Compound 12] | 48 h | 1 min | 1 min | 72 to 96 h | 60 h | 1 min
11 | CCCC[N+]1(CCCCN2CCCCC2C(=O)Nc2c(C)cccc2C)CCC[C@@H]1C(=O)Nc1c(C)cccc1C (stereo partly drawn) [Compound 17] | 12 to 24 h | 1 min | – | – | – | –
12 | CCCC[N+]1(CCCCN2CCCCC2C(=O)Nc2ccc(C)cc2)CCC[C@@H]1C(=O)Nc1c(C)cccc1C (stereo partly drawn) [Compound 18] | 20 h | 1 min | – | – | – | –
13 | CCCC[N+]1(CCCCN2CCCCC2C(=O)Nc2ccc(C(F)(F)F)cc2)CCC[C@@H]1C(=O)Nc1c(C)cccc1C (stereo partly drawn) [Compound 20] | 12 to 24 h | 1 min | – | – | – | –
14 | CCCC[N+]1(CCCCN2CCCCC2C(=O)Nc2ccc(F)cc2)CCC[C@@H]1C(=O)Nc1c(C)cccc1C (stereo partly drawn) [Compound 21] | 24 to 48 h | 1 min | 1 min | 57 h | – | –
15 | CCCC[N+]1(CCCCCN2CCCCC2C(=O)Nc2c(C)cccc2C)CCC[C@@H]1C(=O)Nc1c(C)cccc1C (stereo partly drawn) [Compound 22] | 24 to 48 h | 1 min | 1 min | 60 h | – | –
16 | CCCC[N+]1(CCCCN2CCCCC2C(=O)Nc2c(C)cccc2C)CCC[C@@H]1C(=O)Nc1c(C)cc(C)cc1C (stereo partly drawn) [Compound 27] | 12 to 24 h | 1 min | – | – | – | –
17 | CCCC[N+]1(CCCCN2CCCCC2C(=O)Nc2ccc(C)cc2)CCC[C@@H]1C(=O)Nc1c(C)cc(C)cc1C (stereo partly drawn) [Compound 28] | 12 to 24 h | 1 min | – | – | – | –
18 | CCCC[N+]1(CCCCN2CCCCC2C(=O)Nc2ccc(F)cc2)CCC[C@@H]1C(=O)Nc1c(C)cc(C)cc1C (stereo partly drawn) [Compound 29] | 24 to 48 h | 1 min | 1 min | 50 h | – | –
19 | CCCC[N+]1(CCCCCN2CCCCC2C(=O)Nc2ccc(F)cc2)CCC[C@@H]1C(=O)Nc1c(C)cc(C)cc1C (stereo partly drawn) [Compound 32] | 12 to 24 h | 1 min | – | – | – | –
20 | CCCCN1CCCC[C@H]1C(=O)Nc1c(C)cccc1C [Levobupivacaine hydrochloride, reference compound] | 3 h | – | – | 4 h | 3 h | –
